Values of other authors in patent US7037910B2, “Azabicyclic heterocycles as cannabinoid receptor modulators” (Bristol-Myers Squibb, priority 2003, dated 2006).
Like-named read-outs stand apart in the source and are kept apart here.

Assays:
[1] = chronic administration for two weeks
[2] = human subjects, 16 week trial period

SMILES | body weight [1] | body weight [2]
Cc1c(C(=O)NN2CCCCC2)nn(-c2ccc(Cl)cc2Cl)c1-c1ccc(I)cc1 [AM-251] | substantial body weight reduction | –
Cc1c(C(=O)NN2CCCCC2)nn(-c2ccc(Cl)cc2Cl)c1-c1ccc(Cl)cc1 [SR-141716] | – | dose-dependently reduced body weight
